# According to ChEMBL document CHEMBL1201862, “PubChem BioAssay data set” (2004):
# Calls of active or inactive are those of the source. For most assays here, no stated cut-off is given here; in the data, actives have a measured EC50 and inactives only a lower limit.
# How the values were obtained:
# [1] = test system: H9c2; experiment: cells; assay type: functional, cell-based; settings: Rattus norvegicus, H9c2, Myocardium;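 further: confirmatory concentration-response retest of ultra-high-throughput screening hits for modulation of myocardial damage; cell death induced by hydrogen peroxide oxidative stress; compound pretreatment for 60 min then peroxide exposure for 2 h; potency is for protecting the cells against peroxide damage rather than for killing them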
# [2] = Luminescence Cell-Based Dose Confirmation HTS to Identify Inhibitors of Platelet Dense Granule Release. [Related pubchem assays: 1663 (Primary HTS), 1678 (Summary of Project)]; assay type: functional
# [3] = biological target: Luciferin 4-monooxygenase (Photinus pyralis, UniProt P08659); experiment: inhibition of purified Photinus pyralis luciferase – biochemical, luminescence, dose response (AID 1891)
# [4] = Luminescence Cell-Based Dose Retest to Confirm Inhibitors of Cancer Stem Cells. [Related pubchem assays (depositor defined):AID2717, AID2721]; assay type: functional; settings: Homo sapiens
# [5] = cells; assay type: functional, cell-based
# [6] = cells; assay type: functional, cell-based; remark: listed apart in the source
# [7] = Trypanosoma cruzi growth suppression in host cells – NIH3T3 host cells, beta-gal luminescence, confirmation (AID 2044); assay type: functional, cell-based;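 further: intracellular parasites grown in NIH/3T3 mouse fibroblasts as host cells; luminescent beta-galactosidase reporter signal from transgenic T. cruzi replicating inside host cells; inhibitors lower the luminescence signal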
# [8] = biological target: Large T antigen (Simian virus 40, UniProt P03070); assay type: functional, Betapolyomavirus macacae;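 further: Confirmatory-stage PubChem screen for compounds that inhibit SV40 T antigen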
# [9] = NIH3T3 cell viability loss – ATP luminescence, mouse fibroblasts, counter-screen, dose response (AID 2010); assay type: functional, cell-based;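 further: cells exposed to compound for about 90 hours before reading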
# [10] = Luminescence Cell-Based Dose Response HTS to Identify Activators of Luciferase Translation or Activity in H4 […] Cells. [Related pubchem assays: 1829 (Project Summary), 1814 (Primary HTS)]; assay type: functional
# [11] = Luminescence Cell-Based Dose Confirmation HTS to Identify Activators of 5'UTR Stem-Loop Driven Alpha-Synuclein mRNA Translation in H4 Neuroglioblastoma Cells. [Related pubchem assays: 1829 (Project Summary), 1814 (Primary HTS)]; assay type: functional
# [12] = test system: H4; experiment: Luminescence Cell-Based Dose Response HTS to Identify Activators of 5'UTR Stem-Loop Driven Prion Protein mRNA Translation in H4 Neuroglioblastoma Cells. [Related pubchem assays: 1829 (Project Summary), 1814 (Primary HTS)]; assay type: functional; settings: Homo sapiens
# [13] = biological target: Paired box protein Pax-8 (Homo sapiens, UniProt Q06710); experiment: PAX8 transcriptional activity inhibition in RMG-I – RMG-I cells, luciferase, cherry-pick, dose response (AID 687027); assay type: functional, cell-based;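 further: luciferase reporter driven by Pax8 target thyroperoxidase promoter measured by SteadyGlo luminescence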
# [14] = test system: BJ; experiment: BJ-TERT-LT-ST fibroblast viability loss – cell-based, RAS-independent, luminescence, dose response (AID 1935); assay type: functional; settings: Homo sapiens;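 further: BJ fibroblasts immortalized with TERT plus LT and ST oncogenes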
# [15] = DRD fibroblast viability loss – cell-based, non-viral oncogenic, luminescence, dose response (AID 1934); assay type: functional; settings: Homo sapiens
# [16] = fluconazole-exposed Candida albicans growth modulators – fluorescence, retest, confirmation (AID 2467); assay type: functional, cell-based
# [17] = NIH-3T3 fibroblast cytotoxicity, dose response, cytotoxicity control, cell-based, fluorescence, Alamar Blue, secondary assay (AID 2327); assay type: functional;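 further: NIH-3T3 mouse fibroblasts cultured with fluconazole at 8 µg/mL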
# [18] = test system: BJ; experiment: BJ-TERT fibroblast viability loss – cell-based, RAS-independent, luminescence, dose response (AID 1933); assay type: functional; settings: Homo sapiens
# [19] = test system: BJ; experiment: cells; assay type: functional, cell-based; settings: Homo sapiens
# [20] = biological target: T1, Protein skinhead-1 (Caenorhabditis elegans, UniProt P34707); assay type: functional
# T1 sequence (P34707 whole entry): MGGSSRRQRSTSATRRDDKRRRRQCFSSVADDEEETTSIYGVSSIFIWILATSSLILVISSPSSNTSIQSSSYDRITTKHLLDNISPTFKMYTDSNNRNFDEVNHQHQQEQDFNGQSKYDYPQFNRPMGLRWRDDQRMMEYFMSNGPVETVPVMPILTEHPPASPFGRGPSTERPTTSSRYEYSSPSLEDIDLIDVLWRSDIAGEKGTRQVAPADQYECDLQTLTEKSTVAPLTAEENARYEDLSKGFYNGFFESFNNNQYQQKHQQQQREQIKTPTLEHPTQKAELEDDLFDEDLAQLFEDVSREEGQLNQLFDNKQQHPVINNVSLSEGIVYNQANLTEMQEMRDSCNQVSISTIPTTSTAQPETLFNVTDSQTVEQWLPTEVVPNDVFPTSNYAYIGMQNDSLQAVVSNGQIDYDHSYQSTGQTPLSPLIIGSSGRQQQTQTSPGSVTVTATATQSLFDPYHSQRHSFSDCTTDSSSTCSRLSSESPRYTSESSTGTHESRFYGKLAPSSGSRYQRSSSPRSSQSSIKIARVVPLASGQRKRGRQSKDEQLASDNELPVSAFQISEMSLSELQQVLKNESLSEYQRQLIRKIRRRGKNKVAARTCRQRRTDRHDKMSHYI
# [21] = biological target: Heat shock protein HSP 90-alpha (Homo sapiens, UniProt P07900); assay type: functional, organism-based
# [22] = biological target: T2, DNA repair protein RAD52 homolog (Homo sapiens, UniProt P43351); assay type: functional, biochemical
# T2 sequence (P43351 whole entry): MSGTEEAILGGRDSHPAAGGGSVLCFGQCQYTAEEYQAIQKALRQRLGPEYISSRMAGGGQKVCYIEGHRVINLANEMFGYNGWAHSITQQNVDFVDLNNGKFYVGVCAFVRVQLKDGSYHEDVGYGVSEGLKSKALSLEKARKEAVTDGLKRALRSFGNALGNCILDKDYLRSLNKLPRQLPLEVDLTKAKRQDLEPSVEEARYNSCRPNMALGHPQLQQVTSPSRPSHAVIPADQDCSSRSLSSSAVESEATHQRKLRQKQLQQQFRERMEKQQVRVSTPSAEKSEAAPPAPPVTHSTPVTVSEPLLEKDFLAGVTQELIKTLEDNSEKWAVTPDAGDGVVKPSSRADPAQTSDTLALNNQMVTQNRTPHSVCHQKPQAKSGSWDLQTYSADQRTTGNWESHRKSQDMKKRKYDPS
# [23] = test system: INS1; experiment: INS-1E survival protection against cytokine death – cell-based, luminescence, retest, dose response (AID 449756); assay type: functional; settings: Rattus norvegicus;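 further: cell death triggered by IL-1 beta plus TNF-alpha plus IFN-gamma mixture; protective hits raise ATP signal compared with cytokine alone wells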
# [24] = P. falciparum Dd2 growth inhibitors, dose response, SYBR Green, cherry-picked samples (AID 1159567); assay type: functional, cell-based
# Sequence of Luciferin 4-monooxygenase (P08659 whole entry): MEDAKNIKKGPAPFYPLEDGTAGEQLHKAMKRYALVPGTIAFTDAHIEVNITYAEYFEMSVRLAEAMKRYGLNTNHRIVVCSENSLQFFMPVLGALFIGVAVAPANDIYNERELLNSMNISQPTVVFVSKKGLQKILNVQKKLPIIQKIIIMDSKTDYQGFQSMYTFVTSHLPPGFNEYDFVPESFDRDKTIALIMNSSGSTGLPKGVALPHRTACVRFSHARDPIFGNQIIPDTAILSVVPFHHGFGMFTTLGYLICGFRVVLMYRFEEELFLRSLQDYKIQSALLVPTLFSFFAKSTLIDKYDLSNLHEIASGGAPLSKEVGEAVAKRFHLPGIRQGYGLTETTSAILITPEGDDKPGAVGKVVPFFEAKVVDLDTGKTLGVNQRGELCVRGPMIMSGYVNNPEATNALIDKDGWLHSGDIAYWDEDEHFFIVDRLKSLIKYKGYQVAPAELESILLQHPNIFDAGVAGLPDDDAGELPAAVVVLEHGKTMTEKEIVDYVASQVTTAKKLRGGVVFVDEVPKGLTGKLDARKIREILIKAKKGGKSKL
# Sequence of Paired box protein Pax-8 (Q06710 whole entry): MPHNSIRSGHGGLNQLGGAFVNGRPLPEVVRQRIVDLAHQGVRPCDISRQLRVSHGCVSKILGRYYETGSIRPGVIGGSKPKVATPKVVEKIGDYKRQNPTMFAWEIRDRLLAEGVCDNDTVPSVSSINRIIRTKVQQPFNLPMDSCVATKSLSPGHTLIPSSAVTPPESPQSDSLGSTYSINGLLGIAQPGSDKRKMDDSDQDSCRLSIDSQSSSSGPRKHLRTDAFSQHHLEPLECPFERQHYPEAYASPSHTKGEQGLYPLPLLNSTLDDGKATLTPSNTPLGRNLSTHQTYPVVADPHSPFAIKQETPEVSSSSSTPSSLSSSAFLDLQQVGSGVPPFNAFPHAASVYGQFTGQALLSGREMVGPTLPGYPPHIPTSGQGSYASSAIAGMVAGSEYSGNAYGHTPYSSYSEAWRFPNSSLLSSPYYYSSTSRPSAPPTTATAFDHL
# Sequence of Large T antigen (P03070 whole entry): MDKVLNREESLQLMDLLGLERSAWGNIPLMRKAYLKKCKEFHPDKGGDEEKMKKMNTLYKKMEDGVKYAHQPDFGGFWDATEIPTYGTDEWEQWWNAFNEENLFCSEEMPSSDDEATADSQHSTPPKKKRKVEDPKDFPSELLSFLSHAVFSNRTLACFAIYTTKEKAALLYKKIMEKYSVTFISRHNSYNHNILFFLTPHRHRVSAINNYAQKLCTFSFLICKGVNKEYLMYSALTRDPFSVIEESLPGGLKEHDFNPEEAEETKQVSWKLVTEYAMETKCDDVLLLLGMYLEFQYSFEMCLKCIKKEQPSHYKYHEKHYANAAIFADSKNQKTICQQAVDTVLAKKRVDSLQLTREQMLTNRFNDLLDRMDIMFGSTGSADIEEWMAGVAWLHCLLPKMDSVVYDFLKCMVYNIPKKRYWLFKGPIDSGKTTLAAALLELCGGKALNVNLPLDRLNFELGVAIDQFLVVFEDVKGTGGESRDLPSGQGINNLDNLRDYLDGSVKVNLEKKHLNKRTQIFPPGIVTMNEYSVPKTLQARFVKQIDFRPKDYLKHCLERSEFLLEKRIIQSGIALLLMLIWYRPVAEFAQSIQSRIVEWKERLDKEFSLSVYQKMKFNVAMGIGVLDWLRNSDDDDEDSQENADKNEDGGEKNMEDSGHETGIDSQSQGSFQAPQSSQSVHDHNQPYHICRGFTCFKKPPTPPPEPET
smiles,measurement,setting,value
CCc1nnc(NC(=O)CCC(=O)N2CCN(C3c4ccccc4-c4ccccc43)CC2)s1,IC50,[1],17.4 µM (active)
CCOc1ccccc1CNS(=O)(=O)c1c[nH]cn1,EC50,[2],> 112 µM (not active)
same,EC50,[3],> 112 µM (not active)
COc1ccccc1NC(=O)c1c(Nc2ccccc2F)sc(C(=O)Nc2cccc(Cl)c2)c1N,AC50,[4],1.16 µM (active)
CCC1CCCCN1Cc1c(O)ccc2c(=O)c(-c3ccccc3OC)coc12 (stereo not given),EC50,[5],> 350 µM (not active)
same,EC50,[6],> 350 µM (not active)
CCn1cc(C(=O)N[C@@H](CCSC)C(=O)NCCCn2ccnc2)c(=O)c2cc3c(cc21)OCO3,EC50,[2],> 112 µM (not active)
same,EC50,[3],> 112 µM (not active)
CC1=CS/C(=C(/C#N)C(=O)N2CCOCC2)N1c1ccccc1,EC50,[2],> 112 µM (not active)
same,EC50,[3],> 112 µM (not active)
O=C(CCSc1ccc(Cl)cc1)N1CCN(c2ccc(O)cc2)CC1,EC50,[7],0.169 µM (active)
same,AC50,[4],2.51 µM (active)
same,IC50,[8],6.74 µM (active)
same,EC50,[9],6.9 µM (active)
CCC1(c2ccc(Cl)cc2)N=C(S)N(c2ccc(C)cc2)N1 (stereo not given),EC50,[10],11.2 µM (active)
same,EC50,[11],19.1 µM (active)
same,EC50,[12],14.7 µM (inconclusive)
C=C(C)C(=O)OC1(C(F)(F)F)Oc2cc(C)ccc2NC1=O (stereo not given),AC50,[13],9.05 µM (active)
COc1ccc2occ(C(=O)c3cccs3)c2c1,EC50,[10],13.3 µM (active)
same,EC50,[11],6.67 µM (active)
same,EC50,[12],32.6 µM (active)
Cc1ccc(N2CC(=O)Nc3c(sc4nc(C)cc(C)c34)C2=O)cc1,EC50,[5],> 350 µM (not active)
same,EC50,[6],> 350 µM (not active)
COc1ccc(N(CC(=O)Nc2ccc3c(c2)OCO3)S(=O)(=O)c2ccccc2)c(OC)c1,IC50,[1],> 79 µM (inactive)
COc1ccc(CC(NC(C)=O)C(=O)NC2CCN(C(=O)c3cccc(Cl)c3)CC2)cc1OC (stereo not given),EC50,[5],> 350 µM (not active)
same,EC50,[6],> 350 µM (not active)
CCN=C(S)NNC(=O)c1cc(-c2ccc(OC)cc2)nc2ccccc12,EC50,[14],> 150 µM (not active)
same,EC50,[15],11 µM (active)
same,EC50,[16],> 38 µM (not active)
same,EC50,[17],> 160 µM (inactive)
same,EC50,[2],1.38 µM (active)
same,EC50,[18],9.62 µM (active)
same,EC50,[19],14 µM (active)
same,EC50,[3],0.107 µM (active)
O=C(CCS(=O)(=O)c1ccccc1)Nc1ncc([N+](=O)[O-])s1,EC50,[16],0.746 µM (active)
same,EC50,[17],> 150 µM (inactive)
CCc1nc(C)c(C(=O)N2CCCC(C(=O)Nc3cccc(-c4cccc(C)c4)c3)C2)o1 (stereo not given),EC50,[10],7.7 µM (active)
same,EC50,[11],8.19 µM (active)
same,EC50,[12],16.3 µM (active)
Cc1ccc(O)c(-c2cc(-c3cccc(F)c3)[nH]n2)c1,IC50,[20],> 100 µM (inactive)
same,AC50,[21],25.4 µM (active)
COc1cc(CC(=O)Nc2ccc(Cl)c(C(F)(F)F)c2)cc(OC)c1OC,EC50,[5],> 350 µM (not active)
same,EC50,[6],> 350 µM (not active)
O=C(CSC1=NCCS1)N1CCc2ccccc21,EC50,[10],45.7 µM (active)
same,EC50,[11],10.7 µM (active)
same,EC50,[12],15.4 µM (active)
Cc1ccc2c(c1)C1CN(C)CCC1N2Sc1ccccc1[N+](=O)[O-] (stereo not given),EC50,[16],> 38 µM (not active)
same,EC50,[17],> 150 µM (inactive)
CC1(C)C(=O)C(c2nc3ccccc3[nH]2)=C(N)N1c1ccccc1,EC50,[16],5.1 µM (active)
same,EC50,[17],58.9 µM (active)
O=C(Cn1c(S)nc2ccccc21)c1ccccc1,EC50,[2],> 112 µM (not active)
same,EC50,[3],> 112 µM (not active)
CSC1=NN=C(c2ccc(C(C)(C)C)cc2)NN1,EC50,[10],36.5 µM (active)
same,EC50,[11],15.2 µM (active)
same,EC50,[12],16.9 µM (active)
COC(=O)c1cnn2c(O)c(Cc3ccc(F)cc3Cl)c(C)nc12,EC50,[16],1.33 µM (active)
same,EC50,[17],> 150 µM (inactive)
COc1ccc(CCNC(=O)c2cc(S(=O)(=O)N3CCOCC3)cn2C)cc1OC,EC50,[2],> 112 µM (not active)
same,EC50,[3],> 112 µM (not active)
Cc1ccc(Nc2cc(-n3cccn3)ncn2)c(C)c1,EC50,[10],0.619 µM (active)
same,EC50,[11],0.12 µM (active)
same,EC50,[12],< 0.1 µM (active)
O=C1Cc2ccccc2Sc2ccc(Cl)cc21,EC50,[2],> 112 µM (not active)
same,EC50,[3],> 112 µM (not active)
O=C(NCc1cccnc1)C(=O)NCC1OCCN1S(=O)(=O)c1ccccc1 (stereo not given),EC50,[2],> 112 µM (not active)
same,EC50,[3],> 112 µM (not active)
COc1ccc(-c2nnc3sc(-c4ccco4)nn23)cc1OC,IC50,[1],> 79 µM (inactive)
O=C(N1CCOCC1)N1CCN(S(=O)(=O)N2CCOCC2)CC1,EC50,[2],> 112 µM (not active)
same,EC50,[3],> 112 µM (not active)
Cn1nc(C(=O)NC2CCCCC2)c2c1-c1ccccc1SC2,EC50,[10],25.7 µM (active)
same,EC50,[11],13.4 µM (active)
same,EC50,[12],12.2 µM (active)
CC(OC(=O)Cc1nnc(O)c2ccccc12)C(=O)Nc1cccc([N+](=O)[O-])c1 (stereo not given),IC50,[1],> 79 µM (inactive)
Cc1ccc(C(=O)NC(=S)NNC(=O)c2ccccc2[N+](=O)[O-])cc1,EC50,[16],> 38 µM (not active)
same,EC50,[17],18.8 µM (inconclusive)
Cc1cc([N+](=O)[O-])ccc1NC(=O)CSc1nncn1-c1cccnc1,EC50,[2],> 112 µM (not active)
same,EC50,[3],> 112 µM (not active)
Cc1cccc(OCC(=O)Nc2ccc3c(c2)nc(CN2CCCCC2)n3C)c1,AC50,[22],20 µM (active)
COc1ccc(-c2cc(C(=O)N(C)Cc3nc(O)c4ccccc4n3)c3ccccc3n2)cc1OC,IC50,[1],> 79 µM (inactive)
COC(=O)c1ccc2c(O)nc(COC(=O)c3[nH]c(C)c(C(C)=O)c3C)nc2c1,IC50,[1],7.05 µM (active)
COC(=O)c1ccc(Cn2nnc3c(O)nc(C4CCCN(S(=O)(=O)c5ccccc5)C4)nc32)cc1 (stereo not given),IC50,[1],18.3 µM (active)
Cc1ccc(/N=C/c2cc(Cl)cc(Cl)c2O)nc1,IC50,[1],13.5 µM (active)
CCOC(=O)C1=c2s/c(=C\c3ccncc3)c(=O)n2C(N)=C(C(=O)OC)C1c1ccncc1 (stereo not given),IC50,[1],> 79 µM (inactive)
Cc1ccc(S(=O)(=O)Nc2ccc3c(c2)C(=O)N([C@@H](C)CO)C[C@@H](C)[C@H](CN(C)Cc2ccc(Cl)c(Cl)c2)OCCCC[C@@H](C)O3)cc1,AC50,[13],7.92 µM (active)
N#CCC(=O)N/N=C/c1ccc(SCC(=O)Nc2ccccc2)o1,EC50,[5],> 350 µM (not active)
same,EC50,[6],> 350 µM (not active)
C/C(N)=C(/C#N)C(=O)COC(=O)c1cc(-c2ccc(C)cc2)nc2ccccc12,AC50,[23],> 260 µM (inactive)
same,AC50,[4],17.4 µM (active)
COc1ccc(C#Cc2ccc3c(c2)[C@H]2[C@H](CCN2C(=O)c2ccccn2)[C@H](CO)N3)cc1,AC50,[24],5.61 µM (active)
C[C@@H](C(=O)N(C)C[C@@H]1OCc2ccccc2-c2c(n(C)c3ccccc23)C(=O)N([C@@H](C)CO)C[C@@H]1C)c1ccccc1,AC50,[24],6.3 µM (active)
